This assay addresses coffee bean alpha-galactosidase (Coffea arabica) (UniProt Q42656). Nature of the assay: Inhibitory activity measured against alpha-galactosidase of coffee bean by colorimetric assay using the p-nitrophenyl glycoside method.

Sequence of coffee bean alpha-galactosidase (Coffea arabica) (Q42656 whole entry, looked up): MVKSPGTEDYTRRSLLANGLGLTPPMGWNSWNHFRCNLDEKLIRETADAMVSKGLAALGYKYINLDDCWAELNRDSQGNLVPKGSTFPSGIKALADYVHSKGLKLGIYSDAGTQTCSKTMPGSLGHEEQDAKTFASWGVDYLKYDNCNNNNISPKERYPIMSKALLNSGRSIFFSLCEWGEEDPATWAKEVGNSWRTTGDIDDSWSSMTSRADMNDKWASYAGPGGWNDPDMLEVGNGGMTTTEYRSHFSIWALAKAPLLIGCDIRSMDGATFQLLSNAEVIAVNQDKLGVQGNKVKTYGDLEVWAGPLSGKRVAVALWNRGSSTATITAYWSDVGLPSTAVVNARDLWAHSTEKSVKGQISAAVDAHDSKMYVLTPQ

`OC[C@H]1N[C@H](CO)[C@H](O)C(O)[C@H]1O` (some centres not stated) showed an IC50 of 80 µM.
Under `OCC1NC(CO)[C@@H](O)C(O)C1O` (stereo partly drawn) [(R)-2,6-Bis-hydroxymethyl-piperidine-3,4,5-triol] stands 6.4 µM.

One may read the IC50 as the concentration at which inhibition is half-maximal.

These data come from BindingDB's records for doi:10.1021/jm970836l (Hokuriku University, 1998).
